Laboratory results from patent US20210254056A1, “IDENTIFICATION AND TARGETED MODULATION OF GENE SIGNALING NETWORKS” (CAMP4 THERAPEUTICS CORPORATION, priority 2017, published 2021).

Test system: hepatocytes
Experiment: RNA-seq of hepatocytes treated with Phase III failure compounds
Method: RNA-seq was performed to determine the effects of the compounds on hepatocytes.
Significance was determined by the criteria of FPKM≥0.5, a log 2(fold-change)≥1, and a […].

## CCC(CC)[C@H](NC(C)=O)[C@@H]1[C@H](O)[C@@H](C(=O)O)C[C@H]1NC(=N)N.O.O.O [peramivir (trihydrate), peramivir]
HYLS1 expression in hepatocytes
  RNA-seq results, gene HYLS1: −0.16
ID1 expression in hepatocytes
  RNA-seq results, gene ID1: −0.69
IDH1 expression in hepatocytes
  RNA-seq results, gene IDH1: 0.19
IDH2 expression in hepatocytes
  RNA-seq results, gene IDH2: 0
IDUA expression in hepatocytes
  RNA-seq results, gene IDUA: 0.34
IFIH1 expression in hepatocytes
  RNA-seq results, gene IFIH1: −0.06
IFNAR2 expression in hepatocytes
  RNA-seq results, gene IFNAR2: 0.01
IFT27 expression in hepatocytes
  RNA-seq results, gene IFT27: 0.27
IFT80 expression in hepatocytes
  RNA-seq results, gene IFT80: −0.41
IFT122 expression in hepatocytes
  RNA-seq results, gene IFT122: −0.16
IFT140 expression in hepatocytes
  RNA-seq results, gene IFT140: 0.27
IFT172 expression in hepatocytes
  RNA-seq results, gene IFT172: 0.16
IGFALS expression in hepatocytes
  RNA-seq results, gene IGFALS: 0.11
IKBKG expression in hepatocytes
  RNA-seq results, gene IKBKG: 0.3
IL1RN expression in hepatocytes
  RNA-seq results, gene IL1RN: 0.21
IL2RG expression in hepatocytes
  RNA-seq results, gene IL2RG: 0.6
INSR expression in hepatocytes
  RNA-seq results, gene INSR: 0.28
INVS expression in hepatocytes
  RNA-seq results, gene INVS: −0.03
ISYNA1 expression in hepatocytes
  RNA-seq results, gene ISYNA1: −0.17
ITGB3 expression in hepatocytes
  RNA-seq results, gene ITGB3: 0.27
IYD expression in hepatocytes
  RNA-seq results, gene IYD: −0.02
JAG1 expression in hepatocytes
  RNA-seq results, gene JAG1: −0.1
JAK2 expression in hepatocytes
  RNA-seq results, gene JAK2: −0.14
KCTD7 expression in hepatocytes
  RNA-seq results, gene KCTD7: 0.11
KCTD11 expression in hepatocytes
  RNA-seq results, gene KCTD11: −0.21
KHK expression in hepatocytes
  RNA-seq results, gene KHK: 0.03
KIAA0586 expression in hepatocytes
  RNA-seq results, gene KIAA0586: −0.2
KMT2D expression in hepatocytes
  RNA-seq results, gene KMT2D: −0.05
KPTN expression in hepatocytes
  RNA-seq results, gene KPTN: 0.22
KRIT1 expression in hepatocytes
  RNA-seq results, gene KRIT1: −0.1
KRT18 expression in hepatocytes
  RNA-seq results, gene KRT18: −0.47
KYNU expression in hepatocytes
  RNA-seq results, gene KYNU: 0.16
LAMB2 expression in hepatocytes
  RNA-seq results, gene LAMB2: 0.01
LCAT expression in hepatocytes
  RNA-seq results, gene LCAT: 0.11
LDHB expression in hepatocytes
  RNA-seq results, gene LDHB: −0.34
LDLR expression in hepatocytes
  RNA-seq results, gene LDLR: 0.24
LDLRAP1 expression in hepatocytes
  RNA-seq results, gene LDLRAP1: 0.2
LIPC expression in hepatocytes
  RNA-seq results, gene LIPC: −0.29
LIPT1 expression in hepatocytes
  RNA-seq results, gene LIPT1: −0.12
LMNB2 expression in hepatocytes
  RNA-seq results, gene LMNB2: 0.14
LPA expression in hepatocytes
  RNA-seq results, gene LPA: 0.07
LPIN1 expression in hepatocytes
  RNA-seq results, gene LPIN1: 0.22
LPIN2 expression in hepatocytes
  RNA-seq results, gene LPIN2: 0.1
LRBA expression in hepatocytes
  RNA-seq results, gene LRBA: −0.32
LRP5 expression in hepatocytes
  RNA-seq results, gene LRP5: 0.15
LYRM4 expression in hepatocytes
  RNA-seq results, gene LYRM4: 0.19
LYST expression in hepatocytes
  RNA-seq results, gene LYST: −0.14
MAN1A1 expression in hepatocytes
  RNA-seq results, gene MAN1A1: −0.26
MAN2B1 expression in hepatocytes
  RNA-seq results, gene MAN2B1: 0.13
MAOB expression in hepatocytes
  RNA-seq results, gene MAOB: −0.16
MAT1A expression in hepatocytes
  RNA-seq results, gene MAT1A: 0.3
MBL2 expression in hepatocytes
  RNA-seq results, gene MBL2: −0.47
MCCC1 expression in hepatocytes
  RNA-seq results, gene MCCC1: 0.01
MCCC2 expression in hepatocytes
  RNA-seq results, gene MCCC2: −0.2
MCM6 expression in hepatocytes
  RNA-seq results, gene MCM6: −0.05
MEN1 expression in hepatocytes
  RNA-seq results, gene MEN1: 0.15
MET expression in hepatocytes
  RNA-seq results, gene MET: −0.2
MGAT2 expression in hepatocytes
  RNA-seq results, gene MGAT2: 0.09
MKS1 expression in hepatocytes
  RNA-seq results, gene MKS1: 0.17
MLH1 expression in hepatocytes
  RNA-seq results, gene MLH1: −0.06
MMAA expression in hepatocytes
  RNA-seq results, gene MMAA: −0.35
MMAB expression in hepatocytes
  RNA-seq results, gene MMAB: 0.27
MMADHC expression in hepatocytes
  RNA-seq results, gene MMADHC: −0.24
MOCS1 expression in hepatocytes
  RNA-seq results, gene MOCS1: 0.13
MOGAT2 expression in hepatocytes
  RNA-seq results, gene MOGAT2: −0.04
MOGS expression in hepatocytes
  RNA-seq results, gene MOGS: 0.24
MPZ expression in hepatocytes
  RNA-seq results, gene MPZ: 0.41
MRPL3 expression in hepatocytes
  RNA-seq results, gene MRPL3: −0.06
MTHFR expression in hepatocytes
  RNA-seq results, gene MTHFR: 0.35
MTM1 expression in hepatocytes
  RNA-seq results, gene MTM1: −0.13
MTO1 expression in hepatocytes
  RNA-seq results, gene MTO1: −0.03
MTR expression in hepatocytes
  RNA-seq results, gene MTR: −0.08
MTRR expression in hepatocytes
  RNA-seq results, gene MTRR: −0.2
MTTP expression in hepatocytes
  RNA-seq results, gene MTTP: −0.29
MVK expression in hepatocytes
  RNA-seq results, gene MVK: 0.29
MYH9 expression in hepatocytes
  RNA-seq results, gene MYH9: 0.02
MYO5B expression in hepatocytes
  RNA-seq results, gene MYO5B: 0.2
NAGS expression in hepatocytes
  RNA-seq results, gene NAGS: 0.46
NARS2 expression in hepatocytes
  RNA-seq results, gene NARS2: −0.14
NAT2 expression in hepatocytes
  RNA-seq results, gene NAT2: −0.1
NBAS expression in hepatocytes
  RNA-seq results, gene NBAS: −0.22
NCF2 expression in hepatocytes
  RNA-seq results, gene NCF2: 0.47
NEK1 expression in hepatocytes
  RNA-seq results, gene NEK1: 0.1
NEK8 expression in hepatocytes
  RNA-seq results, gene NEK8: 0.29
NEU1 expression in hepatocytes
  RNA-seq results, gene NEU1: 0.51
NFKB2 expression in hepatocytes
  RNA-seq results, gene NFKB2: 0.12
NFKBIA expression in hepatocytes
  RNA-seq results, gene NFKBIA: −0.06
NFU1 expression in hepatocytes
  RNA-seq results, gene NFU1: −0.04
NGLY1 expression in hepatocytes
  RNA-seq results, gene NGLY1: −0.07
NHP2 expression in hepatocytes
  RNA-seq results, gene NHP2: 0.21
NME1 expression in hepatocytes
  RNA-seq results, gene NME1: 0.06
NOD2 expression in hepatocytes
  RNA-seq results, gene NOD2: 0.33
NOP10 expression in hepatocytes
  RNA-seq results, gene NOP10: 0.2
NOTCH1 expression in hepatocytes
  RNA-seq results, gene NOTCH1: 0.16
NOTCH2 expression in hepatocytes
  RNA-seq results, gene NOTCH2: −0.03
NPC1 expression in hepatocytes
  RNA-seq results, gene NPC1: 0.3
NR1H4 expression in hepatocytes
  RNA-seq results, gene NR1H4: 0.22
NUBPL expression in hepatocytes
  RNA-seq results, gene NUBPL: −0.06
NUDT7 expression in hepatocytes
  RNA-seq results, gene NUDT7: −0.23
NUDT12 expression in hepatocytes
  RNA-seq results, gene NUDT12: −0.17
OAT expression in hepatocytes
  RNA-seq results, gene OAT: 0.1
OPA3 expression in hepatocytes
  RNA-seq results, gene OPA3: 0.03
OTC expression in hepatocytes
  RNA-seq results, gene OTC: −0.18
PAF1 expression in hepatocytes
  RNA-seq results, gene PAF1: 0.09
PAH expression in hepatocytes
  RNA-seq results, gene PAH: 0.05
PANK2 expression in hepatocytes
  RNA-seq results, gene PANK2: −0.22
PAOX expression in hepatocytes
  RNA-seq results, gene PAOX: 0.16
PC expression in hepatocytes
  RNA-seq results, gene PC: 0.17
PCCA expression in hepatocytes
  RNA-seq results, gene PCCA: 0.13
PCK2 expression in hepatocytes
  RNA-seq results, gene PCK2: 0.46
PCSK9 expression in hepatocytes
  RNA-seq results, gene PCSK9: 0.26
PCYT1A expression in hepatocytes
  RNA-seq results, gene PCYT1A: 0.09
PDGFRA expression in hepatocytes
  RNA-seq results, gene PDGFRA: −0.43
PDP1 expression in hepatocytes
  RNA-seq results, gene PDP1: −0.04
PEPD expression in hepatocytes
  RNA-seq results, gene PEPD: 0.32
PEX11A expression in hepatocytes
  RNA-seq results, gene PEX11A: 0.02
PEX12 expression in hepatocytes
  RNA-seq results, gene PEX12: 0.11
PEX14 expression in hepatocytes
  RNA-seq results, gene PEX14: 0.15
